# Reference: PubChem BioAssay AID330 (DTP/NCI, 2004)
# Where “and” joins values, the source holds several entries; their conditions need not be identical. Equal entries are not always repeated. Inconclusive results and toxic doses are left out.
# Test system: P388 leukemia ip, CD2F1 mice, survival T/C
# Experiment: NCI In Vivo Anticancer Drug Screen. Data for tumor model P388 Leukemia (intraperitoneal) in CD2F1 (CDF1) mice
# Details: endpoint: median survival time, higher = longer survival
# How it was run: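 Mice carrying the transplanted tumor received test compound or vehicle. Survival was recorded in each group, and the value is the treated-group measurement divided by that of the vehicle-treated control group.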
# [1] = dose: 12.5 mg/kg/injection, schedule: Q01DX009 (ip), vehicle: saline with Tween-80
# [2] = dose: 50.0 mg/kg/injection, schedule: Q01DX005 (ip), vehicle: Klucel (hydroxypropylcellulose) (HPC)
# [3] = dose: 100.0 mg/kg/injection, schedule: Q01DX005 (ip), vehicle: Klucel (hydroxypropylcellulose) (HPC)
# [4] = dose: 200.0 mg/kg/injection, schedule: Q01DX005 (ip), vehicle: Klucel (hydroxypropylcellulose) (HPC)
# [5] = dose: 12.5 mg/kg/injection, schedule: Q01DX005 (ip), vehicle: Klucel (hydroxypropylcellulose) (HPC)
# [6] = dose: 25.0 mg/kg/injection, schedule: Q01DX005 (ip), vehicle: Klucel (hydroxypropylcellulose) (HPC)
# [7] = dose: 12.5 mg/kg/injection, schedule: Q01DX009 (ip), vehicle: saline
# [8] = dose: 25.0 mg/kg/injection, schedule: Q01DX009 (ip), vehicle: saline
# [9] = dose: 50.0 mg/kg/injection, schedule: Q01DX009 (ip), vehicle: saline
# [10] = dose: 100.0 mg/kg/injection, schedule: Q01DX009 (ip), vehicle: saline
# [11] = dose: 50.0 mg/kg/injection, schedule: Q01DX009 (ip), vehicle: saline with Tween-80
# [12] = dose: 100.0 mg/kg/injection, schedule: Q01DX009 (ip), vehicle: saline with Tween-80
# [13] = dose: 200.0 mg/kg/injection, schedule: Q04DX003 (ip), vehicle: saline
# [14] = dose: 400.0 mg/kg/injection, schedule: Q04DX003 (ip), vehicle: saline
# [15] = dose: 200.0 mg/kg/injection, schedule: Q01DX009 (ip), vehicle: saline with Tween-80
# [16] = dose: 100.0 mg/kg/injection, schedule: Q04DX002 (ip), vehicle: saline with Tween-80
# [17] = dose: 200.0 mg/kg/injection, schedule: Q04DX002 (ip), vehicle: saline with Tween-80
# [18] = dose: 400.0 mg/kg/injection, schedule: Q04DX002 (ip), vehicle: saline with Tween-80
# [19] = dose: 50.0 mg/kg/injection, schedule: Q01DX009 (ip), vehicle: Klucel (hydroxypropylcellulose) (HPC)
# [20] = dose: 100.0 mg/kg/injection, schedule: Q01DX009 (ip), vehicle: Klucel (hydroxypropylcellulose) (HPC)
# [21] = dose: 200.0 mg/kg/injection, schedule: Q01DX009 (ip), vehicle: Klucel (hydroxypropylcellulose) (HPC)
smiles,measurement,setting,value
C[N+](C)(C)C[c-]1[c-][c-][c-][c-]1.[Fe].[c-]1[c-][c-][cH-][c-]1,T/C,"dose: 1.56 mg/kg/injection, schedule: Q01DX009 (ip), vehicle: saline with Tween-80",96 % of control
same,T/C,"dose: 3.13 mg/kg/injection, schedule: Q01DX009 (ip), vehicle: saline with Tween-80",97 % of control
same,T/C,"dose: 6.25 mg/kg/injection, schedule: Q01DX009 (ip), vehicle: saline with Tween-80",99 % of control
same,T/C,[1],100 % of control
c1cnc2n[se]nc2c1,T/C,"dose: 6.25 mg/kg/injection, schedule: Q04DX002 (ip), vehicle: saline",113 % of control
same,T/C,"dose: 12.5 mg/kg/injection, schedule: Q04DX002 (ip), vehicle: saline",97 % of control
Nc1ccc2snc3c2c1C(=O)c1ccccc1-3,T/C,[2],99 % of control
same,T/C,[3],91 % of control
same,T/C,[4],100 % of control
C=C1CC2(CCCC(=O)C2)OC1=O (configuration not stated),T/C,[5],97 % of control
same,T/C,[6],101 % of control
same,T/C,[2],99 % of control and 101 % of control
FC(F)(F)c1cccc(C2CNCCO2)c1 (configuration not stated),T/C,[7],100 % of control
same,T/C,[8],105 % of control
same,T/C,[9],100 % of control
Cc1ccc(C(=O)CCN(C)C)cc1,T/C,"dose: 6.25 mg/kg/injection, schedule: Q01DX009 (ip), vehicle: saline",105 % of control
same,T/C,[7],100 % of control
same,T/C,[8],96 % of control
same,T/C,[9],98 % of control and 106 % of control
same,T/C,[10],107 % of control
COc1cc(N=Nc2ccc(N=Nc3ccc4cc(S(=O)(=O)O)cc(S(=O)(=O)O)c4c3)c(C)c2)c(C)cc1NC(=O)c1ccc(NC(=O)c2ccc(N)cc2)cc1,T/C,[6],103 % of control and 108 % of control
same,T/C,[2],107 % of control and 111 % of control and 117 % of control
same,T/C,[3],103 % of control and 116 % of control
same,T/C,[4],107 % of control and 112 % of control and 97 % of control
CCCCN(CCCC)CC(O)c1c(Cl)c2ccccc2c2ccccc12 (configuration not stated),T/C,"dose: 25.0 mg/kg/injection, schedule: Q01DX009 (ip), vehicle: saline with Tween-80",100 % of control
same,T/C,[11],93 % of control
same,T/C,[12],100 % of control
CCc1ccc[n+](-c2nc3c([O-])n(C)c(=O)n(C)c-3n2)c1,T/C,"dose: 100.0 mg/kg/injection, schedule: Q04DX003 (ip), vehicle: saline",91 % of control
same,T/C,[13],100 % of control
same,T/C,[14],94 % of control
O=NNc1nccnn1,T/C,"dose: 3.12 mg/kg/injection, schedule: Q01DX009 (ip), vehicle: water",105 % of control
same,T/C,"dose: 6.25 mg/kg/injection, schedule: Q01DX009 (ip), vehicle: water",107 % of control
same,T/C,"dose: 12.5 mg/kg/injection, schedule: Q01DX009 (ip), vehicle: water",105 % of control
same,T/C,"dose: 25.0 mg/kg/injection, schedule: Q01DX009 (ip), vehicle: water",108 % of control and 111 % of control
same,T/C,"dose: 50.0 mg/kg/injection, schedule: Q01DX009 (ip), vehicle: water",114 % of control and 118 % of control
same,T/C,"dose: 100.0 mg/kg/injection, schedule: Q01DX009 (ip), vehicle: water",120 % of control
same,T/C,"dose: 200.0 mg/kg/injection, schedule: Q01DX009 (ip), vehicle: water",119 % of control
CCNCc1nc2sc3c(c2c(=O)[nH]1)CCCC3,T/C,[11],105 % of control
same,T/C,[12],94 % of control
same,T/C,[15],99 % of control
CC(C)(C)OC(=O)c1ccc(C(=O)OC(C)(C)C)cc1,T/C,[16],97 % of control
same,T/C,[17],96 % of control
same,T/C,[18],96 % of control
Cc1cc(=O)[nH]c2cc(O)ccc12,T/C,[6],100 % of control
same,T/C,[2],93 % of control
same,T/C,[3],98 % of control
Cc1cc(NC(=O)NCc2ccc(N3C(N)=NC(N)=NC3(C)C)cc2)ccc1S(=O)(=O)F,T/C,[1],119 % of control
same,T/C,"dose: 25.0 mg/kg/injection, schedule: Q04DX003 (ip), vehicle: saline with Tween-80",105 % of control
same,T/C,"dose: 25.0 mg/kg/injection, schedule: Q04DX003 (ip), vehicle: saline",109 % of control
same,T/C,"dose: 50.0 mg/kg/injection, schedule: Q04DX003 (ip), vehicle: saline with Tween-80",119 % of control
same,T/C,[12],176 % of control
same,T/C,"dose: 100.0 mg/kg/injection, schedule: Q04DX003 (ip), vehicle: saline with Tween-80",153 % of control
same,T/C,"dose: 200.0 mg/kg/injection, schedule: Q04DX003 (ip), vehicle: saline with Tween-80",164 % of control
same,T/C,[13],154 % of control
same,T/C,[14],90 % of control
CC(C)(C)C(S)CS (configuration not stated),T/C,"dose: 12.5 mg/kg/injection, schedule: Q01DX005 (ip), vehicle: saline with Tween-80",104 % of control
same,T/C,"dose: 25.0 mg/kg/injection, schedule: Q01DX005 (ip), vehicle: saline with Tween-80",104 % of control
same,T/C,"dose: 50.0 mg/kg/injection, schedule: Q01DX005 (ip), vehicle: saline with Tween-80",101 % of control and 103 % of control
CCOC(=O)CCN1CC=CCC1,T/C,"dose: 50.0 mg/kg/injection, schedule: Q01DX005 (ip), vehicle: saline",105 % of control
same,T/C,"dose: 100.0 mg/kg/injection, schedule: Q01DX005 (ip), vehicle: saline",102 % of control
same,T/C,"dose: 200.0 mg/kg/injection, schedule: Q01DX005 (ip), vehicle: saline",102 % of control
O=C1CCC2(ON=C(c3ccccc3)C2Br)O1 (configuration not stated),T/C,[11],116 % of control
same,T/C,[12],108 % of control
same,T/C,[15],116 % of control
O=C1c2cc(Br)ccc2OC2CCON12 (configuration not stated),T/C,[19],108 % of control
same,T/C,[20],107 % of control
same,T/C,[21],94 % of control
Cc1cc(=O)oc2c(C)c3oc4ccncc4c3cc12,T/C,[2],104 % of control
same,T/C,[3],110 % of control
same,T/C,[4],107 % of control
O=c1c2[nH]c3ccccc3sc=2c(=O)n1-c1ccc(Cl)c(Cl)c1Cl,T/C,[16],100 % of control
same,T/C,[17],97 % of control
same,T/C,[18],100 % of control
CCC(=O)NC(CC(C)C)C(=O)O (configuration not stated),T/C,[7],111 % of control
same,T/C,[8],95 % of control
same,T/C,[9],89 % of control
same,T/C,"dose: 200.0 mg/kg/injection, schedule: Q01DX009 (ip), vehicle: saline",107 % of control
CC1(c2ccccc2)Nc2ccccc2N(C(=O)c2ccccc2)C1c1ccccc1 (configuration not stated),T/C,"dose: 60.0 mg/kg/injection, schedule: Q01DX005 (ip), vehicle: Klucel (hydroxypropylcellulose) (HPC)",91 % of control
same,T/C,"dose: 120.0 mg/kg/injection, schedule: Q01DX005 (ip), vehicle: Klucel (hydroxypropylcellulose) (HPC)",90 % of control
Cn1cnc([N+](=O)[O-])c1Sc1nnc(-c2ccccc2)c(-c2ccccc2)n1,T/C,[2],88 % of control
same,T/C,[3],86 % of control
same,T/C,[4],92 % of control
NC(=O)CC(NC(=O)OCC1c2ccccc2-c2ccccc21)C(=O)O (configuration not stated),T/C,[5],92 % of control
same,T/C,[6],100 % of control
same,T/C,[2],100 % of control and 105 % of control
C[N+]1(CC2CC2)C2CC(OC(=O)C(CO)c3ccccc3)CC1C1OC12 (configuration not stated),T/C,[9],99 % of control
same,T/C,[10],96 % of control
CSc1nnc2nc3c4ccccc4c4ccccc4c3nn12,T/C,"dose: 50.0 mg/kg/injection, schedule: Q04DX002 (ip), vehicle: suspension in saline",100 % of control
same,T/C,"dose: 100.0 mg/kg/injection, schedule: Q04DX002 (ip), vehicle: suspension in saline",100 % of control
same,T/C,"dose: 200.0 mg/kg/injection, schedule: Q04DX002 (ip), vehicle: suspension in saline",98 % of control
O=C(c1ccc2c(c1)OCO2)N1OC2C=CC1CC2 (configuration not stated),T/C,[11],98 % of control
same,T/C,[12],96 % of control
same,T/C,[15],98 % of control
COc1ccccc1C1C(C#N)C(=O)NC(=O)C1C#N (configuration not stated),T/C,[19],113 % of control
same,T/C,[20],105 % of control
same,T/C,[21],105 % of control
OCC1OC(C2N(c3ccccc3)CCN2c2ccccc2)C(O)C1O (configuration not stated),T/C,"dose: 12.5 mg/kg/injection, schedule: Q01DX009 (ip), vehicle: distilled water + Tween-80",102 % of control
same,T/C,"dose: 25.0 mg/kg/injection, schedule: Q01DX009 (ip), vehicle: distilled water + Tween-80",100 % of control
same,T/C,"dose: 50.0 mg/kg/injection, schedule: Q01DX009 (ip), vehicle: distilled water + Tween-80",98 % of control
same,T/C,"dose: 100.0 mg/kg/injection, schedule: Q01DX009 (ip), vehicle: distilled water + Tween-80",90 % of control
same,T/C,"dose: 200.0 mg/kg/injection, schedule: Q01DX009 (ip), vehicle: distilled water + Tween-80",93 % of control
CC[CH2][Pb]([CH2]CC)([CH2]CC)[O]C(=O)C(F)(F)F,T/C,"dose: 3.13 mg/kg/injection, schedule: Q01DX009 (ip), vehicle: saline",117 % of control
